From ChEMBL document CHEMBL4004838, “Design and synthesis of novel phenyl -1, 4-beta-carboline-hybrid molecules as potential anticancer agents” (Eur J Med Chem, 2017)

What was measured:
Assay type in all cases: functional
IGROV-1 = assay: Growth inhibition of human IGROV1 cells assessed as cell growth at 10^-5 M incubated for 48 hrs by sulforhodamine B assay relative to control; conditions: IGROV-1, 48 h, read-out: Activity
HCT-116 = assay: Growth inhibition of human HCT116 cells assessed as cell growth at 10^-5 M incubated for 48 hrs by sulforhodamine B assay relative to control; conditions: HCT-116, 48 h, read-out: Activity
SNB-19 [1] = assay: Growth inhibition of human SNB19 cells assessed as cell growth at 0.1 uM incubated for 48 hrs by sulforhodamine B assay relative to control; conditions: SNB-19, 48 h, read-out: Activity
A498 = assay: Growth inhibition of human A498 cells assessed as cell growth at 10^-5 M incubated for 48 hrs by sulforhodamine B assay relative to control; conditions: A498, 48 h, read-out: Activity
SNB-19 [2] = assay: Growth inhibition of human SNB19 cells assessed as cell growth at 10^-5 M incubated for 48 hrs by sulforhodamine B assay relative to control; conditions: SNB-19, 48 h, read-out: Activity
OVCAR-8 = assay: Growth inhibition of human OVCAR8 cells assessed as cell growth at 10^-5 M incubated for 48 hrs by sulforhodamine B assay relative to control; conditions: OVCAR-8, 48 h, read-out: Activity
NCI/ADR-RES = assay: Growth inhibition of human NCI-ADR-RES cells assessed as cell growth at 10^-5 M incubated for 48 hrs by sulforhodamine B assay relative to control; conditions: read-out: Activity
Hs-578T = assay: Growth inhibition of human Hs 578T cells incubated for 48 hrs by sulforhodamine B assay
CCRF-CEM = assay: Growth inhibition of human CCRF-CEM cells assessed as cell growth at 100 uM incubated for 48 hrs by sulforhodamine B assay relative to control; conditions: read-out: Activity
OVCAR-3 = assay: Growth inhibition of human OVCAR3 cells assessed as cell growth at 0.01 uM incubated for 48 hrs by sulforhodamine B assay relative to control; conditions: OVCAR-3, 48 h, read-out: Activity
KM12 = assay: Growth inhibition of human KM12 cells assessed as cell growth at 10^-5 M incubated for 48 hrs by sulforhodamine B assay relative to control; conditions: KM12, 48 h, read-out: Activity
SN12C = assay: Growth inhibition of human SN12C cells assessed as cell growth at 10^-5 M incubated for 48 hrs by sulforhodamine B assay relative to control; conditions: read-out: Activity
PC-3 = assay: Growth inhibition of human PC3 cells assessed as cell growth at 10^-5 M incubated for 48 hrs by sulforhodamine B assay relative to control; conditions: PC-3, 48 h, read-out: Activity
Malme-3M = assay: Growth inhibition of human MALME-3M cells assessed as cell growth at 10^-5 M incubated for 48 hrs by sulforhodamine B assay relative to control; conditions: read-out: Activity
786-0 = assay: Growth inhibition of human 786-0 cells assessed as cell growth at 10^-5 M incubated for 48 hrs by sulforhodamine B assay relative to control; conditions: 786-0, 48 h, read-out: Activity
COLO 205 = assay: Growth inhibition of human COLO205 cells assessed as cell growth at 10^-5 M incubated for 48 hrs by sulforhodamine B assay relative to control; conditions: COLO 205, 48 h, read-out: Activity
SW-620 = assay: Growth inhibition of human SW620 cells assessed as cell growth at 10^-5 M incubated for 48 hrs by sulforhodamine B assay relative to control; conditions: SW-620, 48 h, read-out: Activity
BT-549 = assay: Growth inhibition of human BT549 cells assessed as cell growth at 10^-5 M incubated for 48 hrs by sulforhodamine B assay relative to control; conditions: BT-549, 48 h, read-out: Activity
SNB-75 = assay: Growth inhibition of human SNB75 cells assessed as cell growth at 10^-5 M incubated for 48 hrs by sulforhodamine B assay relative to control; conditions: SNB-75, 48 h, read-out: Activity
NCI-H322M = assay: Growth inhibition of human NCI-H322M cells assessed as cell growth at 10^-5 M incubated for 48 hrs by sulforhodamine B assay relative to control; conditions: read-out: Activity
CAKI-1 = assay: Growth inhibition of human Caki1 cells assessed as cell growth at 10^-5 M incubated for 48 hrs by sulforhodamine B assay relative to control; conditions: CAKI-1, 48 h, read-out: Activity
MDA-MB-435 = assay: Growth inhibition of human MDA-MB-435 cells assessed as cell growth at 10^-5 M incubated for 48 hrs by sulforhodamine B assay relative to control; conditions: MDA-MB-435, 48 h, read-out: Activity
MOLT-4 = assay: Growth inhibition of human MOLT4 cells assessed as cell growth at 10^-5 M incubated for 48 hrs by sulforhodamine B assay relative to control; conditions: MOLT-4, 48 h, read-out: Activity
HT-29 = assay: Growth inhibition of human HT-29 cells assessed as cell growth at 10^-5 M incubated for 48 hrs by sulforhodamine B assay relative to control; conditions: HT-29, 48 h, read-out: Activity
RPMI-8226 = assay: Growth inhibition of human RPMI8226 cells assessed as cell growth at 10^-5 M incubated for 48 hrs by sulforhodamine B assay relative to control; conditions: RPMI-8226, 48 h, read-out: Activity
ACHN = assay: Growth inhibition of human ACHN cells assessed as cell growth at 10^-5 M incubated for 48 hrs by sulforhodamine B assay relative to control; conditions: read-out: Activity
NCI-H522 = assay: Growth inhibition of human NCI-H522 cells assessed as cell growth at 10^-5 M incubated for 48 hrs by sulforhodamine B assay relative to control; conditions: NCI-H522, 48 h, read-out: Activity
M14 = assay: Growth inhibition of human M14 cells assessed as cell growth at 10^-5 M incubated for 48 hrs by sulforhodamine B assay relative to control; conditions: M14, 48 h, read-out: Activity
U-251 = assay: Growth inhibition of human U251 cells assessed as cell growth at 10^-5 M incubated for 48 hrs by sulforhodamine B assay relative to control; conditions: U-251, 48 h, read-out: Activity
HCT-15 = assay: Growth inhibition of human HCT15 cells assessed as cell growth at 10^-5 M incubated for 48 hrs by sulforhodamine B assay relative to control; conditions: HCT-15, 48 h, read-out: Activity
MDA-MB-468 = assay: Growth inhibition of human MDA-MB-468 cells assessed as cell growth at 10^-5 M incubated for 48 hrs by sulforhodamine B assay relative to control; conditions: MDA-MB-468, 48 h, read-out: Activity
UACC-257 = assay: Growth inhibition of human UACC257 cells assessed as cell growth at 10^-5 M incubated for 48 hrs by sulforhodamine B assay relative to control; conditions: UACC-257, 48 h, read-out: Activity

| Structure (SMILES) | growth at 10 µM (HCT-116) | growth at 10 µM (A498) | growth at 10 µM (SNB-19 [2]) | growth at 10 µM (OVCAR-8) | growth at 10 µM (NCI/ADR-RES) | growth at 10 µM (KM12) | growth at 10 µM (SN12C) | growth at 10 µM (PC-3) | growth at 10 µM (Malme-3M) | growth at 10 µM (786-0) | growth at 10 µM (COLO 205) | growth at 10 µM (SW-620) | growth at 10 µM (BT-549) | growth at 10 µM (SNB-75) | growth at 10 µM (NCI-H322M) | growth at 10 µM (MDA-MB-435) | growth at 10 µM (MOLT-4) | growth at 10 µM (HT-29) | growth at 10 µM (RPMI-8226) | growth at 10 µM (ACHN) | other results |
| --- | --- | --- | --- | --- | --- | --- | --- | --- | --- | --- | --- | --- | --- | --- | --- | --- | --- | --- | --- | --- | --- |
| c1ccc2[nH]c(-c3ccc(-c4nccc5c4[nH]c4ccccc45)cc3)nc2c1 | 1 to 16.3% | 58 to 68.7% | 27 to 55.1% | 4 to 16.5% | 10 to 62.6% | 19 to 76.6% | 60.9% | 47 to 85.7% | – | – | – | – | – | – | – | – | – | – | – | – | growth at 10 µM (IGROV-1): 25 to 94.5%; growth at 0.1 µM (SNB-19 [1]): 96%; GI50 (Hs-578T; read-out: GI50): 2.23 µM; TGI (Hs-578T; read-out: TGI): 5.93 µM; GI50 (Hs-578T; read-out: pGI50 (converted)): 2.24 µM; CC50 (Hs-578T; read-out: pLC50 (the source's name) (converted)): > 100 µM; TGI (Hs-578T; read-out: pTGI (converted)): 5.89 µM; growth at 100 µM (CCRF-CEM): 29%; growth at 0.01 µM (OVCAR-3): 101% |
| O=Cc1ccc(C2NCCc3c2[nH]c2ccccc32)cc1 (stereo unspecified) | 78.4% | 86.4% | 100% | 105% | 107% | 107% | 89% | 84.3% | 100% | 104% | 105% | 88.8% | 90.1% | 77.8% | 97.6% | 107% | 95.5% | 98.9% | 101% | 95% | growth at 10 µM (CAKI-1): 72.4%; growth at 10 µM (NCI-H522): 88%; growth at 10 µM (M14): 89.5%; growth at 10 µM (U-251): 95.3%; growth at 10 µM (HCT-15): 101%; growth at 10 µM (MDA-MB-468): 88.7% |
| c1ccc2c(c1)[nH]c1c(-c3ccc(-c4nccc5c4[nH]c4ccccc45)cc3)nccc12 | 88.2% | 145% | 106% | 111% | 95.9% | 99.1% | 94.5% | 84.2% | 92.5% | 94.8% | 92% | 108% | 87.6% | 82.5% | 104% | 109% | 97% | 88.9% | 97.4% | 99.5% | growth at 10 µM (UACC-257): 119%; growth at 10 µM (IGROV-1): 88.8%; growth at 10 µM (NCI-H522): 84.7%; growth at 10 µM (M14): 99.3%; growth at 10 µM (U-251): 107%; growth at 10 µM (HCT-15): 99.7%; growth at 10 µM (MDA-MB-468): 105% |
| c1ccc2[nH]c(-c3ccc(C4NCCc5c4[nH]c4ccccc54)cc3)nc2c1 (stereo unspecified) | 96.1% | 104% | 100% | 99.2% | 109% | 103% | 93.8% | 85% | 90% | 95.9% | 98.3% | 99.1% | 93.2% | 89% | 92.8% | 101% | 107% | 94.2% | 97.3% | 102% | growth at 10 µM (CAKI-1): 77.5%; growth at 10 µM (NCI-H522): 83.5%; growth at 10 µM (M14): 96.6%; growth at 10 µM (U-251): 93.4%; growth at 10 µM (HCT-15): 107%; growth at 10 µM (MDA-MB-468): 94.7% |
